Assay results from a melting point compilation (Tetko et al.; mined from patent text by program, amines drawn as free bases though some values may be those of a salt).

SMILES	melting point [°C]
CCOC(=O)C1=CC2(CCC1S(=O)(=O)Nc1ccc(F)cc1Cl)CCC1(COCOO1)CO2 (stereo not drawn)	156 to 157
CCOC(=O)Cc1cc(C)c(C(=O)c2ccc([N+](=O)[O-])cc2)n1C	148 to 149
CC(=O)OC1CCc2cc3ccccc3n2C1 (stereo not drawn)	90 to 95
CSc1ccc(N2CCCN(/C(C)=C(/C#N)C(=S)/N=C/N(C)C)CC2)cc1	133 to 136
Cc1c(C)c2c(c(C)c1NC(=O)CC(C)(C)C)C(c1ccc(CCCO)cc1)CO2 (stereo not drawn)	119 to 120
OC(CNc1ccc(Cl)c(Cl)c1)Cn1ccnc1 (stereo not drawn)	98 to 100
Nc1cccc(S(F)(F)(F)(F)F)c1	32 to 35
Cc1nnsc1C(=O)NCCc1ccccc1	64 to 68
CCOCC(COCC)Oc1ccc(/C=C/C(=O)OCC)c(Oc2ncc(C(F)(F)F)cc2Cl)c1	66 to 67.5
Cc1ccc(OCn2c(-c3nonc3NCCC#N)nc3ccccc32)cc1C	132 to 135
O=c1c2ccccc2oc2cc(O)ccc12	242
CCOC(=O)c1n[nH]c2c(=S)[nH]c3cc(Cl)ccc3c(=O)c12	248 to 253
COC(=O)c1cc(C(=O)O)cc(C(=O)OC)c1C(=O)OC	143 to 144
Cn1nc(-c2ccc(S(=O)(=O)N3CCn4c(c(C(N)=O)c(Cl)c4-c4ccccc4)C3)s2)cc1C(F)(F)F	159 to 161
CCCSc1nc(Br)c(Br)n1Cc1cc2c(cc1Cl)OCO2	116
CCc1c2nc(-c3cc(C(C)=O)cnc3OCC(C)C)[nH]c(=O)c2nn1C1CCN(C)CC1	195 to 196
COc1ccc(-c2ccc(C(=O)Nc3ccc4cc(CN5CCCC5)cnc4c3C)cn2)cc1	180 to 182
CNC(=S)C1(c2cccnc2)CCCS1 (stereo not drawn)	133
CCN(CC)CCNC(=O)c1cc(Cl)c(N)cc1OCC(=O)N1CCCC1	160 to 162
O=C(c1ccc([N+](=O)[O-])cc1)N1CCOCC1	90 to 91
Cc1c(C)c(N2C(=O)c3cc(Cl)c(Cl)cc3C2=O)c(C)c2c1OC(C)(C)C2c1ccc(C(C)C)cc1 (stereo not drawn)	237 to 239

SMILES	melting point [°C]
C=C(C)C(=O)CC/C(C)=C/CC/C(C)=C/C(N)=O	42 to 44
CCOC(=O)c1ncn2c1Cn1ccnc1-c1sccc1-2	203 to 204
COCCCS(=O)(=O)NC(=O)CCc1cc(C(C)(C)C)nn1Cc1ccc(C(F)(F)F)cc1Cl	149 to 150
N#Cc1ccc(-c2cc3c(O)ncnc3[nH]2)cc1	> 410
Cc1cc(-c2ccc(S(N)(=O)=O)cc2)n(-c2ccc(Cl)cc2)c1	171 to 173
Cc1ccc(C(=O)c2c(Cl)cccc2Cl)cc1	109 to 112
Nc1cc(Br)nc(C(=O)O)c1Cl	182 to 183
CN1C(=O)C(N)C(=O)N(C23CC4CC(CC(C4)C2)C3)c2ccccc21 (stereo not drawn)	194
O=c1[nH]c(NCCCNc2ncccc2Cl)ncc1Cc1ccc(Cl)cc1	180 to 181
CCOC(=O)C1CCN(c2cc(-n3c(=O)cc(C(F)(F)F)[nH]c3=O)c(F)cc2C#N)CC1	124
CC(C)c1nc(CN2C(=O)C3(COc4cc5c(cc43)OCCO5)c3ccccc32)cs1 (stereo not drawn)	60 to 63
COCCNc1nc(Cc2ccc(OC)c(OC)c2)nc2sc(C#N)c(C)c12	94 to 97
Cc1ccc(CS(=O)c2nc3cc4c(cc3[nH]2)OC(F)C(F)(F)O4)nc1 (stereo not drawn)	186 to 187
CCOC(=O)c1ncn2c1C1C=CCN1C(=O)c1c(F)cccc1-2 (stereo not drawn)	200 to 201
CC(=O)NC[C@H]1CN(c2ccc(-c3noc(C(N)=O)n3)c(F)c2)C(=O)O1	218 to 220
CNc1nc(C)c(-c2ccnc(Nc3ccc(CCO)cc3)n2)s1	216 to 218
CC1(C)CCC(C)(C)c2cc(SCc3ccc(C(=O)O)cc3)ccc21	169 to 170
Nc1nc(Nc2ccc(N3CCOCC3)cc2)sc1C(=O)c1c(Cl)cccc1Cl	245 to 247
CC(=O)OCC(=O)C1=CCC2C3CCC4=CC(=O)CCC4(C)C34OC4CC12C (stereo not drawn)	129 to 130
CCCc1cc(F)c(C(=O)O)c([N+](=O)[O-])c1O	128 to 129
COc1ccc(-c2ccccc2[N+](=O)[O-])cc1	55 to 56

SMILES	melting point [°C]
CCCCCCCCCCCCCCCCCCC(=O)Nc1ccn(C2OC(CO)C(O)C2O)c(=O)n1 (stereo not drawn)	139 to 142
CC(C)(C)OC(=O)NCCNc1n[nH]c2ncnc(Nc3cccc(Cl)c3)c12	206 to 208
CC1N(c2cc(CC(Cl)C(=O)O)c(Cl)cc2Cl)NC(=O)N1C(F)F (stereo not drawn)	138 to 141
CCC(=O)Nc1cccc(-c2ccc(Cl)nn2)c1	184 to 187
O=C1N(CCCCCl)CCN1c1ccccc1	47.5 to 49
COC(=O)C1=C(C)NC(CC(=O)N2CCN(C3CCC4CCC3C4)CC2)=C(C(=O)OC)C1c1c(Cl)cccc1Cl (stereo not drawn)	197 to 207
Cc1nc(N)nc(N)c1CCCC(C)c1ccc(-c2cc(F)cc(F)c2)cc1 (stereo not drawn)	129 to 134
CCCc1ccc(-c2ncc(C#N)c(Cl)n2)cc1	109 to 110
O=[N+]([O-])CS(=O)(=O)c1ccccc1Br	74 to 76
CCCn1c(=O)c(C(=O)OCC)c(N2CCN(C(=O)c3cccs3)CC2)c2cccnc21	92 to 96
CC(=N)NS(=O)(=O)C=Cc1ccccc1	130 to 134
CCc1cc(-c2[nH]c3ccccc3c2C)cc(CC)c1OC	95.7 to 96.1
Cc1cc(Nc2nccc(-c3sc(-c4cccnc4)nc3C)n2)ccc1N1CCCCC1	200 to 201
CCCCCCCCOc1ccc(-c2ccc(O)c(F)c2F)cc1	145
C=C(C)Cc1c(O)cc(C(C)(C)C)c(OC(C)=O)c1C(C)(C)C	102
O=C(O)C1=Cc2c(F)ccc(Br)c2OC1C(F)(F)F (stereo not drawn)	222 to 223
Brc1cccc(Br)c1I	99 to 100
COCOc1cc(OC)ccc1C(=O)O	96 to 97
ClCc1cc(Cl)nc(Cl)n1	32 to 33
O=C(O)c1cn(C2CC2)c2c(F)c(N3CCC[C@H]3CO)c(F)cc2c1=O	209 to 210

The next lines start with the values.

melting point [°C]	SMILES
117 to 118	O=C(NCCCCOc1ccc(-n2ccnc2)cc1)c1ccccc1
250	O=C(CNC(=O)C(Cc1ccccc1)CP(=O)(O)O)OCc1ccccc1 (stereo not drawn)
216 to 217	CC(=O)Nc1nccc(Oc2ccc3c(C(=O)Nc4cccc(C(F)(F)F)c4)cccc3c2)n1
202 to 205	Cc1ccccc1-c1c(C(C)n2cnc3c(N)ncnc32)oc2ccccc2c1=O (stereo not drawn)
115 to 116	FC(F)(F)c1cccc(CO[C@H]2CO[C@@H](c3ccccc3)OC2)c1
130 to 140	C[C@H](NC(=O)Cc1cccc(F)c1)C(=O)N[C@@H]1C(=O)Nc2ccccc2O[C@@H]1c1ccccc1
194 to 195	O=C(Nc1cccc(S(=O)(=O)C(F)(F)F)c1)c1ccc2ccccc2c1O
81 to 83	CCOC(=O)CCc1cn(CC(=O)N(C)CCc2ccccc2)c2ccc(OCc3ccccc3)cc12
165 to 167	COC(=O)C(C)(C)Cc1c(SC(C)(C)C)c2cc(OCc3ccc4cc(F)ccc4n3)ccc2n1Cc1ccc(Cl)cc1
< 20	CCOC(=O)C(C)(C)Oc1ccc(-c2ccc(CCNC(=O)c3c(OC)cccc3OC)cc2)cc1
209 to 210	COC(=O)c1ccc(CCc2nc(NC(C)=O)sc2Cc2ccc(S(C)(=O)=O)cc2)cc1
228 to 230	COc1ccccc1NC(=O)NCc1nnc(C)n1-c1sc(C)c(C)c1C(=O)c1ccc(Cl)cc1
184 to 185	COC(=O)c1ccc2c(C(C(=O)NS(=O)(=O)c3ccc(C)cc3OC)c3ccc4c(c3)OCO4)cn(C)c2c1 (stereo not drawn)
190 to 192	O=CNc1ccc2c(c1)nc(/C=C/c1ccccc1)n2-c1ccccn1
140 to 144	O=C1Cc2ccccc2C(=O)N1Cc1ccccc1F
114 to 116	Oc1ccccc1Oc1ccc(-c2ccsc2)cc1O
149 to 151	CNC(=O)C(=NOC)c1ccccc1COc1ccc2c(c1)OCC2=O
81 to 87	O=C1C(CCO)Oc2ccccc2N1Cc1ccc2ccccc2c1 (stereo not drawn)

melting point [°C]	SMILES
140 to 141	O=C(Cc1ccc2[nH]cc(CCN3C(=O)c4ccccc4C3=O)c2c1)N1CCOCC1
220 to 222	O=c1c2c(c3cccnc3n1-c1ccccc1)N(c1ccccc1)CC2
137 to 138	CCOc1cccc(OC)c1CN1CCC(=O)C(C(c2ccccc2)c2ccccc2)C1 (stereo not drawn)
78 to 79	COc1cc2c(cc1OCc1ccccc1)CCN(Cc1cccnc1)C2
160 to 161	Cc1oc(-c2cccc(C(F)(F)F)c2)nc1COc1cccc(CN(O)C(N)=O)c1
180 to 181	CCOC(=O)C(Cc1ccccc1)NC(=O)COc1ccc(C2=NNC(=O)NC2)cc1Cl (stereo not drawn)
188 to 189	O=C1C=C(c2c(-c3ccccc3)nn3ccccc23)CCN1
116 to 127	N#Cc1ccc2c(c1)C(=O)c1ccccc1OC2
170	CN1CCC(OC(c2ccccc2)c2nc3cccc(O)c3[nH]2)CC1 (stereo not drawn)
48 to 53	O=Cc1cccc(OCc2ccc3ccccc3n2)c1
114 to 115	COC(=O)N[C@H](C(=O)N[C@@H](Cc1ccccc1)[C@@H](O)CN(Cc1ccc(-c2cncs2)cc1)NC(=O)[C@@H](NC(=O)OC)C(C)(C)C)C(C)C
230 to 233	O=CNCC1CN(c2c(F)cc3c(=O)c(C(=O)O)cn(-c4ccc(F)cc4F)c3c2F)CCO1 (stereo not drawn)
95 to 100	COC(=O)C(C)Oc1ccc(Oc2ccc3ccccc3n2)cc1 (stereo not drawn)
> 300	CC(=O)N(CC=C=CC=c1c(C)c2c(n(-c3ccccc3)c1=O)=NN(c1ccccc1)C2=O)c1ccccc1
81 to 83	CCCCc1cn(-c2ccccc2Cl)c(=O)n1Cc1ccc(-c2ccccc2-c2nnn[nH]2)nc1
238 to 240	Cc1cc(C(F)(F)F)c(-c2ccc(C[C@H](NC(=O)c3c(Cl)cccc3Cl)C(=O)O)cc2)c(=O)n1C
135 to 137	O=C1C(=Cc2sccc2Oc2ccccc2)CCc2cc(OCCn3ccnc3)ccc21
158 to 159	Clc1c2ccccc2nc2c1oc1ccccc12
